Laboratory results reported in patent US20250163038A1, “CBL-B MODULATORS AND USES THEREOF” (Nimbus Clio, Inc., priority 2021, published 2025).
pEC50, pIC50: −log10 of the molar value.

Tests used:
[1] = target: Recombinant human Cbl-b (aa 36-427) (Homo sapiens, UniProt Q13191); experiment: Cbl-b Biochemical Assay (TR-FRET); details: read-out: TR-FRET hCbl-b IC50
[2] = test system: Jurkat (clone E6-1) cells with NFAT luciferase reporter; experiment: Jurkat reporter assay (NFAT Luciferase); assay type: cell-based; details: Homo sapiens; Jurkat NFAT luciferase reporter cells, anti-CD3 stimulation, 6 hr; read-out: Jurkat NFAT EC50
[3] = target: T1, Recombinant human c-Cbl (aa 47-435) (Homo sapiens, UniProt P22681); experiment: c-Cbl Biochemical Assay (TR-FRET); details: hc-Cbl Biochemical Assay (TR-FRET); read-out: TR-FRET hcCbl IC50
T1 sequence (P22681 47-435): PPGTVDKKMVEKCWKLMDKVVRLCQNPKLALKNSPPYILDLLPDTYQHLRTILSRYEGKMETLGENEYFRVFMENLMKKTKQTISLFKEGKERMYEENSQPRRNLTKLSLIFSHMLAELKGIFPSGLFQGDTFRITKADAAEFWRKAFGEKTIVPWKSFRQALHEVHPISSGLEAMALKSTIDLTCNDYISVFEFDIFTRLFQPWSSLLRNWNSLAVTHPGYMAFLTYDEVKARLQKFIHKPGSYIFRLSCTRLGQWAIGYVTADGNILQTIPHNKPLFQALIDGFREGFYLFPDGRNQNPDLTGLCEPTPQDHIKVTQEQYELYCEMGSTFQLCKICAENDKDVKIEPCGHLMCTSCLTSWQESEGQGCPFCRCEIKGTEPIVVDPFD

Chain of Recombinant human Cbl-b (aa 36-427) (Q13191 36-427): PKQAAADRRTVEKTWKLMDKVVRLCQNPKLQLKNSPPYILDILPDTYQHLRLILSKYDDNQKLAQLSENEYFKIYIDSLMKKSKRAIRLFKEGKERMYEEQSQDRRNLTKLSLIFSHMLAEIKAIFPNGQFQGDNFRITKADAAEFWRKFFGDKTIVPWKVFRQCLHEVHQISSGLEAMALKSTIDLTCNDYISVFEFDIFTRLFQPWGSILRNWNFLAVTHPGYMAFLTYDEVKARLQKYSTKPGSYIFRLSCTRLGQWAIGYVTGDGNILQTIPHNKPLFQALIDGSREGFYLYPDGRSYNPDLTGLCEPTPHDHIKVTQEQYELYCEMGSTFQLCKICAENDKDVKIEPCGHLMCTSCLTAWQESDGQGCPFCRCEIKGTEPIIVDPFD

Cn1cnnc1-c1cc(F)ccc1-c1cc(-c2nc3cc(CNCC4(O)CCC4)cc(C(F)(F)F)c3o2)cc(C2CC2)c1 [JS-1, 1-((((2-(5-Cyclopropyl-4′-fluoro-2′-(4-methyl-4H-1,2,4-triazol-3-yl)-[1,1′-biphenyl]-3-yl)-7-(trifluoromethyl)benzo[d]oxazol-5-yl)methyl)amino)methyl)cyclobutan-1-ol]
> 6.70: pIC50 [1] | pEC50 [2] | pIC50 [3]

COCCNCc1cc(C(F)(F)F)c2oc(-c3cc(-c4ccc(F)cc4-c4nncn4C)cc(C4CC4)c3)nc2c1 [JT-1, N-((2-(5-Cyclopropyl-4′-fluoro-2′-(4-methyl-4H-1,2,4-triazol-3-yl)-[1,1′-biphenyl]-3-yl)-7-(trifluoromethyl)benzo[d]oxazol-5-yl)methyl)-2-methoxyethan-1-amine]
> 6.70: pIC50 [1] | pEC50 [2] | pIC50 [3]

Cn1cnnc1-c1cc(F)ccc1-c1cc(-c2nc3cc(CNCC4CCC4)cc(C(F)(F)F)c3o2)cc(C2CC2)c1 [JU-1, 1-Cyclobutyl-N-((2-(5-cyclopropyl-4′-fluoro-2′-(4-methyl-4H-1,2,4-triazol-3-yl)-[1,1′-biphenyl]-3-yl)-7-(trifluoromethyl)benzo[d]oxazol-5-yl)methyl)methanamine]
> 6.70: pIC50 [1] | pEC50 [2] | pIC50 [3]
